Results reported in publication PMC6268586, “Effect of Wine and Vinegar Processing of Rhizoma Corydalis on the Tissue Distribution of Tetrahydropalmatine, Protopine and Dehydrocorydaline in Rats” (Molecules, 2012).
Read-outs that look alike come from different tables or passages of the source.

Assay: Tissue distribution of THP, DHC and protopine in rat tissues after gastric gavage administration (HPLC-UV, non-compartmental analysis)
Type: in vivo, Wistar male rats
Conditions: male, Wistar, po, 4.52 mg/kg; for AUC(0-t): read-out: AUC0–24 h of protopine; for Cmax: read-out: Cmax of protopine; for MRT: read-out: MRT of protopine; for Tmax: read-out: Tmax of protopine
Description: The experimental protocol was approved by the University's Animal Ethics Committee. […] Rats had unlimited access to water. Standard food was given until 12 h before the experiments. Rhizoma Corydalis was processed according to Pharmacopoeia of Chinese Medicine and National Guideline of Traditional Chinese Medicinal Plants Processing. Briefly, fresh Rhizoma Corydalis was boiled in water till the pith turn light brown color. Cooked rhizome was sliced into pieces (4 mm, diameter) and dried at 25 °C. Dried slices were mixed with edible vinegar (100:20, rhizome/vinegar, w/v) or yellow wine (100:10, rhizome/wine, w/v) and the slices allowed to completely absorb the vinegar or wine. The soaked slices were then stir-fried in a metallic pan over a low flame till they were completely dry. The processed Rhizoma Corydalis was added with 70% ethanol (1:30 w/v) and sonicated for 1 h at room temperature. The extract was then concentrated to remove the ethanol residue and stored at 4 °C for further use. […] The ethanol extract of the unprocessed Rhizoma Corydalis and THP, DHC and protopine pure compound were used as the controls. Three hundred and sixty healthy rats were used in total and are divided into six groups (Group 1-6, sixty rats per group). Drugs were administrated by gastric gavage method. In order to keep the dose of THP, DHC and protopine constant in each group, the amount of ethanol extract of Rhizoma Corydalis administrated was normalized based on the dose of protopine pure compound used. The dose of THP and DHC pure compound administrated was same with that in the ethanol extract of Rhizoma Corydalis. The details were listed below. […] Rats were administrated with the 70% ethanol extract of unprocessed Rhizoma Corydalis at a dose of 17.75 g extract/kg body weight. […] Rats received the extract of vinegar-processed Rhizoma Corydalis at a dose of 15 g extract/kg rat body weight. Group 3: Rats were administrated with the extract of wine processed Rhizoma Corydalis at a dose of 15.78 g extract/kg body weight. […] Rats received THP pure compound at a dose of 6.45 mg/kg body weight. Group 6: Rats were administrated 26.10 mg of DHC pure compound/kg body weight. […] Brian tissue was further dissected into six parts: cerebrum, cerebellum, diencephalons, brain stem, hippocampus and striatum. All the tissue samples were rinsed with ice-old saline and stored at -20 °C until extraction. Tissue samples were homogenized in three volumes of ice-cold biological saline and centrifuged for 10 min at 10,000 g and 4 °C. An aliquot of the supernatant (0.5 mL) was collected. Liquid-liquid extraction was used to extract THP, DHC and protopine. One hundred microliter of 1.0 μg/mL nuciferin (internal standard) was mixed with 0.5 mL aliquots of the supernatant. […] The supernatant was evaporated completely under the nitrogen stream in a 60 °C water bath. The residue was redissolved in 100 μL of methanol. A CoMetro HPLC system (CoMetro Technology Ltd, South […], NJ, USA) with 6000 PVW detector UV-VIS detector was used. […] Ltd., Liaoning, China). Other chromatographic conditions were: column temperature, 35 °C; mobile phase, acetonitrile-0.1% phosphoric acid (pH 3.0) (30:70 v/v); flow rate, 1 mL/min; wavelength, 280 nm. Pharmacokinetic parameters were estimated by non-compartmental analysis using Equiv Test/PK (Statistical Solutions Ltd., Saugus, MA, USA). The maximum concentration (Cmax) and the time to reach the maximum concentration (Tmax) were directly obtained from the observed value. All data were represented as mean ± SD. Comparison of values between groups was performed using one-way ANOVA followed by Tukey's test for comparisons among four groups.

[1] = diencephalon, rat diencephalons

Molecule `CN1CCc2cc3c(cc2C(=O)Cc2ccc4c(c2C1)OCO4)OCO3` [protopine] has an AUC(0-t) [1] of 3180 ± 70 ng·h/mL, a Cmax [1] of 1310 ± 270 ng/mL and an MRT [1] of 4.89 ± 0.01 h. The Tmax [1] was 2.07 ± 0.21 h, the AUC(0-t) (rat brain stem) was 2020 ± 420 ng·h/mL and the Cmax (rat brain stem) was 820 ± 170 ng/mL. It also gave an MRT (rat brain stem) of 3.9 ± 0.14 h, a Tmax (rat brain stem) of 2.2 ± 0.01 h and an AUC(0-t) (rat cerebellum) of 3800 ± 830 ng·h/mL. The Cmax (rat cerebellum) was 1560 ± 320 ng/mL, the MRT (rat cerebellum) was 4.86 ± 0.08 h and the Tmax (rat cerebellum) was 2.08 ± 0.01 h. The AUC(0-t) (rat cerebrum) was 3650 ± 780 ng·h/mL, the Cmax (rat cerebrum) was 1350 ± 270 ng/mL and the MRT (rat cerebrum) was 3.93 ± 0.06 h. For the same molecule, the Tmax (rat cerebrum) was 2.1 ± 0.8 h, the AUC(0-t) (rat heart) was 6230 ± 1560 ng·h/mL and the Cmax (rat heart) was 1500 ± 450 ng/mL. The MRT (rat heart) was 5.93 ± 0.02 h, the Tmax (rat heart) was 5.28 ± 0.42 h and the AUC(0-t) (rat hippocampus) was 3660 ± 810 ng·h/mL. For the same molecule, the Cmax (rat hippocampus) was 1560 ± 310 ng/mL, the MRT (rat hippocampus) was 5.23 ± 0.1 h and the Tmax (rat hippocampus) was 2.09 ± 0.04 h. The AUC(0-t) (rat kidney) was 13400 ± 2650 ng·h/mL, the Cmax (rat kidney) was 4420 ± 1310 ng/mL and the MRT (rat kidney) was 5.53 ± 0.04 h. It also gave a Tmax (rat kidney) of 5.13 ± 0.04 h, an AUC(0-t) (rat liver) of 27800 ± 6980 ng·h/mL and a Cmax (rat liver) of 6670 ± 1970 ng/mL. It also gave an MRT (rat liver) of 5.69 ± 0.03 h, a Tmax (rat liver) of 5.09 ± 0.68 h and an AUC(0-t) (rat lung) of 50200 ± 12500 ng·h/mL. It also gave a Cmax (rat lung) of 11200 ± 3310 ng/mL, an MRT (rat lung) of 5.85 ± 0.04 h and a Tmax (rat lung) of 5.22 ± 0.47 h. The AUC(0-t) (rat spleen) was 35000 ± 8180 ng·h/mL, the Cmax (rat spleen) was 7420 ± 2220 ng/mL and the MRT (rat spleen) was 5.65 ± 0.03 h. For the same molecule, the Tmax (rat spleen) was 5.22 ± 0.05 h, the AUC(0-t) (rat striatum) was 6420 ± 1520 ng·h/mL and the Cmax (rat striatum) was 1950 ± 400 ng/mL. The MRT (rat striatum) was 6.57 ± 0.43 h and the Tmax (rat striatum) was 2.07 ± 0.08 h.
